# Reference: US7759337B2, “Phthalazine compounds and methods of use” (Amgen Inc., priority 2005, dated 2010)
# Test system: production of TNF by monocytes activated with bacterial lipopolysaccharide (LPS)
# Experiment: Lipopolysaccharide-activated monocyte TNF production assay
# Format: cell-based
# Settings: Homo sapiens; whole blood monocyte assay (LPS induced TNF release)
# Method in brief: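 Adherent human PBMC-derived monocytes preincubated 60 min with nine two-fold compound dilutions, then stimulated with E. coli K532 LPS (30 ng/mL in the added medium) for 4 h at 37 °C. Supernatant TNF measured by sandwich ELISA; IC50 is the compound concentration halving TNF production, from second-order polynomial fits.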
row,SMILES,IC50 [µM]
1,"COc1ncccc1-c1nncc2cc(-c3cc(C(=O)NC4CC4)ccc3C)ccc12 [Example 230, N-cyclopropyl-3-[1-(2-methoxypyridin-3-yl)phthalazin-6-yl]-4-methylbenzamide]",≤ 5
2,"CCOc1ccc(-c2nncc3cc(-c4cc(C(N)=O)ccc4C)ccc23)c(Cl)c1 [Example 231, 3-[1-(2-chloro-4-ethoxyphenyl)phthalazin-6-yl]-4-methylbenzamide]",≤ 5
3,"Cc1ccc(C(N)=O)cc1-c1ccc2c(-c3ccc(Cl)cc3C)nncc2c1 [Example 232, 3-[1-(4-chloro-2-methylphenyl)phthalazin-6-yl]-4-methylbenzamide]",≤ 5
4,"Cc1ccc(C(=O)NC2CC2)cc1-c1ccc2c(-c3cccnc3Cl)nncc2c1 [Example 233, 3-[1-(2-chloropyridin-3-yl)phthalazin-6-yl]-N-cyclopropyl-4-methylbenzamide]",≤ 5
5,"COc1ncc(-c2nncc3cc(-c4cc(C(=O)NC5CC5)ccc4C)ccc23)c(OC)n1 [Example 234, N-cyclopropyl-3-[1-(2,4-dimethoxypyrimidin-5-yl)phthalazin-6-yl]-4-methylbenzamide]",≤ 5
6,"Cc1ccc(-c2nncc3cc(-c4cc(C(=O)NC5CC5)ccc4C)ccc23)c(Cl)c1 [Example 235, 3-[1-(2-chloro-4-methylphenyl)phthalazin-6-yl]-N-cyclopropyl-4-methylbenzamide]",≤ 5
7,"Cc1ccc(C(N)=O)cc1-c1ccc2c(-c3ccc(S(N)(=O)=O)cc3C)nncc2c1 [Example 236, 3-{1-[4-(aminosulfonyl)-2-methylphenyl]phthalazin-6-yl}-4-methylbenzamide]",≤ 5
8,"COc1ccc(-c2nncc3cc(-c4cc(C(N)=O)ccc4C)ccc23)c(C(F)(F)F)c1 [Example 237, 3-{1-[4-methoxy-2-(trifluoromethyl)phenyl]phthalazin-6-yl}-4-methylbenzamide]",≤ 5
9,"CCOc1cc(Cl)ccc1-c1nncc2cc(-c3cc(C(N)=O)ccc3C)ccc12 [Example 238, 3-[1-(4-chloro-2-ethoxyphenyl)phthalazin-6-yl]-4-methylbenzamide]",≤ 5
10,"Cc1ccc(C(=O)NC2CC2)cc1-c1ccc2c(-c3ccc(F)cc3)nncc2c1 [Example 239, N-cyclopropyl-3-[1-(4-fluorophenyl)phthalazin-6-yl]-4-methylbenzamide]",≤ 5
11,"Cc1ccc(C(=O)NC2CC2)cc1-c1ccc2c(-c3ccc(CC(=O)O)cc3)nncc2c1 [Example 240, [4-(6-{5-[(cyclopropylamino)carbonyl]-2-methylphenyl}phthalazin-1-yl)phenyl]acetic acid]",≤ 5
12,"Cc1ccc(C(=O)NC2CC2)cc1-c1ccc2c(-c3cccnc3C)nncc2c1 [Example 241, N-cyclopropyl-4-methyl-3-[1-(2-methylpyridin-3-yl)phthalazin-6-yl]benzamide]",≤ 5
13,"COc1ccc(-c2nncc3cc(-c4cc(C(=O)NC5CC5)ccc4C)ccc23)c(C)c1 [Example 242, N-cyclopropyl-3-[1-(4-methoxy-2-methylphenyl)phthalazin-6-yl]-4-methylbenzamide]",≤ 5
14,"Cc1ccc(C(N)=O)cc1-c1ccc2c(-c3ccc([S+](C)[O-])cc3C)nncc2c1 (stereo not shown) [Example 243, 4-methyl-3-{1-[2-methyl-4-(methylsulfinyl)phenyl]phthalazin-6-yl}benzamide]",≤ 5
15,"Cc1ccc(C(=O)NC2CC2)cc1-c1ccc2c(-c3cccs3)nncc2c1 [Example 244, N-cyclopropyl-4-methyl-3-(1-thien-2-ylphthalazin-6-yl)benzamide]",≤ 5
16,"Cc1ccc(C(=O)NC2CC2)cc1-c1ccc2c(-c3ccc(OC(F)(F)F)cc3)nncc2c1 [Example 245, N-cyclopropyl-4-methyl-3-{1-[4-(trifluoromethoxy)phenyl]phthalazin-6-yl}benzamide]",≤ 5

row,SMILES,IC50 [µM]
1,"Cc1ccc(C(=O)NC2CC2)cc1-c1ccc2c(-c3ccccc3F)nncc2c1 [Example 246, N-cyclopropyl-3-[1-(2-fluorophenyl)phthalazin-6-yl]-4-methylbenzamide]",≤ 5
2,"CNc1noc2c(-c3ccc4c(-c5cccnc5C)nncc4c3)c(C)ccc12 [Example 247, N,6-dimethyl-7-[1-(2-methylpyridin-3-yl)phthalazin-6-yl]-1,2-benzisoxazol-3-amine]",≤ 5
3,"COc1c(F)cccc1-c1nncc2cc(-c3cc(C(=O)NC4CC4)ccc3C)ccc12 [Example 248, N-cyclopropyl-3-[1-(3-fluoro-2-methoxyphenyl)phthalazin-6-yl]-4-methylbenzamide]",≤ 5
4,"Cc1ccc(C(=O)NC2CC2)cc1-c1ccc2c(-c3ccc(C(F)(F)F)cc3)nncc2c1 [Example 249, N-cyclopropyl-4-methyl-3-{1-[4-(trifluoromethyl)phenyl]phthalazin-6-yl}benzamide]",≤ 5
5,"Cc1ccc(C(=O)NC2CC2)cc1-c1ccc2c(-c3ccccc3)nncc2c1 [Example 250, N-cyclopropyl-4-methyl-3-(1-phenylphthalazin-6-yl)benzamide]",≤ 5
6,"CCc1ccccc1-c1nncc2cc(-c3cc(C(=O)NC4CC4)ccc3C)ccc12 [Example 251, N-cyclopropyl-3-[1-(2-ethylphenyl)phthalazin-6-yl]-4-methylbenzamide]",≤ 5
7,"COc1cc(-c2nncc3cc(-c4cc(C(N)=O)ccc4C)ccc23)c(C)cn1 [Example 252, 3-[1-(2-methoxy-5-methylpyridin-4-yl)phthalazin-6-yl]-4-methylbenzamide]",≤ 5
8,"Cc1ccc(C(=O)NC2CC2)cc1-c1ccc2c(-c3ccc(C(C)(C)C)cc3)nncc2c1 [Example 253, 3-[1-(4-tert-butylphenyl)phthalazin-6-yl]-N-cyclopropyl-4-methylbenzamide]",≤ 5
9,"Cc1ccc(C(=O)NC2CC2)cc1-c1ccc2c(-c3ccccc3C(F)(F)F)nncc2c1 [Example 254, N-cyclopropyl-4-methyl-3-{1-[2-(trifluoromethyl)phenyl]phthalazin-6-yl}benzamide]",≤ 5
10,"Cc1ccc(C(N)=O)cc1-c1ccc2c(-c3cccnc3C)nncc2c1 [Example 255, 4-methyl-3-[1-(2-methylpyridin-3-yl)phthalazin-6-yl]benzamide]",≤ 5
11,"Cc1ccc(C(=O)NC2CC2)cc1-c1ccc2c(-c3ccc(S(C)(=O)=O)cc3C)nncc2c1 [Example 256, N-cyclopropyl-4-methyl-3-{1-[2-methyl-4-(methylsulfonyl)phenyl]phthalazin-6-yl}benzamide]",≤ 5
12,"Cc1ccc(C(=O)NC2CC2)cc1-c1ccc2c(-c3ccc(Cl)cc3C)nncc2c1 [Example 257, 3-[1-(4-chloro-2-methylphenyl)phthalazin-6-yl]-N-cyclopropyl-4-methylbenzamide]",≤ 5
13,"COc1ccc(-c2nncc3cc(-c4cc(C(=O)NC5CC5)ccc4C)ccc23)c(C(F)(F)F)c1 [Example 258, N-cyclopropyl-3-{1-[4-methoxy-2-(trifluoromethyl)phenyl]phthalazin-6-yl}-4-methylbenzamide]",≤ 5
14,"Cc1ccc(C(N)=O)cc1-c1ccc2c(-c3cc(F)ncc3C)nncc2c1 [Example 259, 3-[1-(2-fluoro-5-methylpyridin-4-yl)phthalazin-6-yl]-4-methylbenzamide]",≤ 5
15,"CSc1ccc(-c2nncc3cc(-c4cc(C(N)=O)ccc4C)ccc23)c(C)c1 [Example 260, 4-methyl-3-{1-[2-methyl-4-(methylsulfanyl)phenyl]phthalazin-6-yl}benzamide]",≤ 5
